Test results as given in US20090181963A1, “3H-[1,2,3]TRIAZOLO[4,5-D]PYRIMIDINE COMPOUNDS, THEIR USE AS mTOR KINASE AND PI3 KINASE INHIBITORS, AND THEIR [sequence]” (Wyeth, priority 2008, published 2009).

Experiments:
[1] = biological target: PI3 Kinase α (Homo sapiens, UniProt P42336); assay: Fluorescence polarization assay for PI3K (PI3 Kinase α); type: biochemical; details: diC8-PI(4,5)P2 substrate, 25 μM ATP, one hour at 25° C.
[2] = biological target: PI3 Kinase γ (Homo sapiens, UniProt P48736); assay: Fluorescence polarization assay for PI3K (PI3 Kinase γ); type: biochemical; details: diC8-PI(4,5)P2 substrate, 25 μM ATP, one hour at 25° C.
PI3 Kinase γ, sequence (P48736 whole entry): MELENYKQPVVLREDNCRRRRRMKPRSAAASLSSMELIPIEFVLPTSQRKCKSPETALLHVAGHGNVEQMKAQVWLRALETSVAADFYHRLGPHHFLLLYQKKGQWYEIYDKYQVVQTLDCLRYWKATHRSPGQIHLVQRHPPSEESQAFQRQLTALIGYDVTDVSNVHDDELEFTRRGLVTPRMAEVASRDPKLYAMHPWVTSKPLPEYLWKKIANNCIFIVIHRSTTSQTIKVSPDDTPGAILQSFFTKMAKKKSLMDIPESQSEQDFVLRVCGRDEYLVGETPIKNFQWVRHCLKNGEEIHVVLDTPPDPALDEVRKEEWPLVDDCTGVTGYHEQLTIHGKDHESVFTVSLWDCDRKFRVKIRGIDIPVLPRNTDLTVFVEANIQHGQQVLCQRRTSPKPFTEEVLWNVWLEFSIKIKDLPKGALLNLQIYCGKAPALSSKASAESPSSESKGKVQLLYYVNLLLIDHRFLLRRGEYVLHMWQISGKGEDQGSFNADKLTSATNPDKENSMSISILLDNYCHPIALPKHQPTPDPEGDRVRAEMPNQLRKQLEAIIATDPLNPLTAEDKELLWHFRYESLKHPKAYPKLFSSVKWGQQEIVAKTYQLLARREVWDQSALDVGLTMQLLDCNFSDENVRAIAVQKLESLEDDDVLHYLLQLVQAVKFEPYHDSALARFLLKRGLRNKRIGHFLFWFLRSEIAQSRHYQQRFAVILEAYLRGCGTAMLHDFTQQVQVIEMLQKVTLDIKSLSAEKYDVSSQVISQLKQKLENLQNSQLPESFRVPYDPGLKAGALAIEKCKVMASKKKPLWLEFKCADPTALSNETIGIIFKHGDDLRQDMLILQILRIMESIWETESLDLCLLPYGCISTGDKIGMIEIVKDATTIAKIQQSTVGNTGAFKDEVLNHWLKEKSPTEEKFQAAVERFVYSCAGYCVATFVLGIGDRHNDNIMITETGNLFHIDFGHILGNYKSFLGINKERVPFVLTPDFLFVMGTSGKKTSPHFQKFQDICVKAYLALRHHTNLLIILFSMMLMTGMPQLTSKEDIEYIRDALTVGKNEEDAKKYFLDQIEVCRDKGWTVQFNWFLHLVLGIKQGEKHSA

PI3 Kinase α, sequence (P42336 whole entry): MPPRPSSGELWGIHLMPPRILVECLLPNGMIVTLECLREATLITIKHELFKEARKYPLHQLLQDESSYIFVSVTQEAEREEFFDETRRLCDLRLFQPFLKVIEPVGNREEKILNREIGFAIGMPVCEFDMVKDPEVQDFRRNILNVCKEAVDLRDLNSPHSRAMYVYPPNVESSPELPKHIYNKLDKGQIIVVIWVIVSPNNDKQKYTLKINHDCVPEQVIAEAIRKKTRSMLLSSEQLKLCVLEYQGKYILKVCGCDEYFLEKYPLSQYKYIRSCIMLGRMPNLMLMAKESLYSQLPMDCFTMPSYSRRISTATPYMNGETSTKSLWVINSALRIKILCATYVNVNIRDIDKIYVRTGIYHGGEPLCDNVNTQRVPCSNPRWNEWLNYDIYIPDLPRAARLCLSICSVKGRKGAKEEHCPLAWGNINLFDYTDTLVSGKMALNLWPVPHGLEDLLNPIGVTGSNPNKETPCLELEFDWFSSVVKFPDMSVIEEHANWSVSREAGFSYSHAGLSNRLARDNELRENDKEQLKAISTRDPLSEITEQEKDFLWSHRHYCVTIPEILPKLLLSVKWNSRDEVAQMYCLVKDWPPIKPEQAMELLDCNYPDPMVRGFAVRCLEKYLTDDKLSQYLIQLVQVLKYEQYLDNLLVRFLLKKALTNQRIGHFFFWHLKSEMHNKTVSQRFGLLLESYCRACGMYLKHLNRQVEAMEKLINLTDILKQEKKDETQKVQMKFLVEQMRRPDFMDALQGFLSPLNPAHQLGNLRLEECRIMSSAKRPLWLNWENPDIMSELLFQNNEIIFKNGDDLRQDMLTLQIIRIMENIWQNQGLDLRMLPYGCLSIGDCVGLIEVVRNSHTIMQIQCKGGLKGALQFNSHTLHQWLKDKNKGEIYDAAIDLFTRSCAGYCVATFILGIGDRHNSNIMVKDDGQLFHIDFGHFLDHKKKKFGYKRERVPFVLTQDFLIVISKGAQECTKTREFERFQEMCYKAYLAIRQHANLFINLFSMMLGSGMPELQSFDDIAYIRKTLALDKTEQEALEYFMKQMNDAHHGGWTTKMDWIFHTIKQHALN
PI3 Kinase α, sequence (P27986 whole entry partner): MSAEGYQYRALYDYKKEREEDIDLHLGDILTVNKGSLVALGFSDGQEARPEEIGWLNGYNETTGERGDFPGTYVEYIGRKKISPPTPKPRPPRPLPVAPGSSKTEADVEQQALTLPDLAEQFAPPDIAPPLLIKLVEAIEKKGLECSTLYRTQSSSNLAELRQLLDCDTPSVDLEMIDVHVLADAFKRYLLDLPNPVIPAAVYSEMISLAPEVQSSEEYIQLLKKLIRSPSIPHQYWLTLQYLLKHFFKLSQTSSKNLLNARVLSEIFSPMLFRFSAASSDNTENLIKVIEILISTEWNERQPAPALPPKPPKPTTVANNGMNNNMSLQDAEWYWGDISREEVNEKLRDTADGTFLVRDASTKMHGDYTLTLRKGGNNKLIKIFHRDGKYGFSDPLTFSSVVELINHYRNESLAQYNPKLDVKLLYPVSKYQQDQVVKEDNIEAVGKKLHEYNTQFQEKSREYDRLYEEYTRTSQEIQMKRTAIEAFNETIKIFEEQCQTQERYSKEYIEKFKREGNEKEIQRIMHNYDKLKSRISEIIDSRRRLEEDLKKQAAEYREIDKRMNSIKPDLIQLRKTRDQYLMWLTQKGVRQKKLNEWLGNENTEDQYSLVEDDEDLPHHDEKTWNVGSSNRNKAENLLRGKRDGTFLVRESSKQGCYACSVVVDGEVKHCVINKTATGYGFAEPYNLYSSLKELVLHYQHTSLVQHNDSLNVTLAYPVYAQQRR

Row | Compound | IC50 [1] | IC50 [2]
1 | CC(C)n1nnc2c(N3CCOCC3)nc(-c3ccc(NC(=O)Nc4ccc(CO)cc4)cc3)nc21 [Example 84, 1-(4-Hydroxymethyl-phenyl)-3-[4-(3-isopropyl-7-morpholin-4-yl-3H-[1,2,3]triazolo[4,5-d]pyrimidin-5-yl)-phenyl]-urea] | 3 nM | 34.5 nM
2 | Oc1cncc(-c2nc(N3CCOCC3)c3nnn(C4CCN(Cc5ccco5)CC4)c3n2)c1 [Example 13, 5-{3-[1-(2-furylmethyl)piperidin-4-yl]-7-morpholin-4-yl-3H-[1,2,3]triazolo[4,5-d]pyrimidin-5-yl}pyridin-3-ol] | 31 nM | 111 nM
3 | CCn1nnc2c(N3CCOCC3)nc(-c3ccc(NC(=O)Nc4ccc(C(N)=O)cc4)cc3)nc21 [Example 60, 4-({[4-(3-ethyl-7-morpholin-4-yl-3H-[1,2,3]triazolo[4,5-d]pyrimidin-5-yl)phenyl]carbamoyl}amino)benzamide] | < 2.6 nM | 16.5 nM
4 | CCCCNC(=O)c1ccc(NC(=O)Nc2ccc(-c3nc(N4CCOCC4)c4nnn(CC)c4n3)cc2)cc1 [Example 62, N-butyl-4-({[4-(3-ethyl-7-morpholin-4-yl-3H-[1,2,3]triazolo[4,5-d]pyrimidin-5-yl)phenyl]carbamoyl}amino)benzamide] | 6 nM | 33 nM
5 | Oc1cncc(-c2nc(N3CCOCC3)c3nnn(C4CCN(Cc5ccc[nH]5)CC4)c3n2)c1 [Example 29, 5-{7-morpholin-4-yl-3-[1-(1H-pyrrol-2-ylmethyl)piperidin-4-yl]-3H-[1,2,3]triazolo[4,5-d]pyrimidin-5-yl}pyridin-3-ol] | 1140 nM | 3110 nM
6 | CC(=O)NCCn1nnc2c(N3CCOCC3)nc(-c3cccc(CO)c3)nc21 [Example 8, N-(2-{5-[3-(hydroxymethyl)phenyl]-7-morpholin-4-yl-3H-[1,2,3]triazolo[4,5-d]pyrimidin-3-yl}ethyl)acetamide] | 86 nM | 196 nM
7 | CCn1nnc2c(N3CCOCC3)nc(-c3ccc(NC(=O)Nc4ccc(C(=O)NCCCN5CCN(C)CC5)cc4)cc3)nc21 [Example 55, 4-({[4-(3-ethyl-7-morpholin-4-yl-3H-[1,2,3]triazolo[4,5-d]pyrimidin-5-yl)phenyl]carbamoyl}amino)-N-[3-(4-methylpiperazin-1-yl)propyl]benzamide] | 1.5 nM | 16.5 nM
8 | Oc1cncc(-c2nc(N3CCOCC3)c3nnn(C4CCN(Cc5ccc(-c6ccncc6)cc5)CC4)c3n2)c1 [Example 31, 5-{7-morpholin-4-yl-3-[1-(4-pyridin-4-ylbenzyl)piperidin-4-yl]-3H-[1,2,3]triazolo[4,5-d]pyrimidin-5-yl}pyridin-3-ol] | 298 nM | 2280 nM
9 | CCn1nnc2c(N3CCOCC3)nc(-c3ccc(NC(=O)Nc4ccc(C(=O)NCCN5CCCCC5)cc4)cc3)nc21 [Example 56, 4-({[4-(3-ethyl-7-morpholin-4-yl-3H-[1,2,3]triazolo[4,5-d]pyrimidin-5-yl)phenyl]carbamoyl}amino)-N-(2-piperidin-1-ylethyl)benzamide] | 1.7 nM | 11 nM
10 | Oc1cncc(-c2nc(N3CCOCC3)c3nnn(C4CCN(CN5CCN(Cc6ccccc6)CC5)CC4)c3n2)c1 [Example 28, 5-(3-{1-[(4-benzylpiperazin-1-yl)methyl]piperidin-4-yl}-7-morpholin-4-yl-3H-[1,2,3]triazolo[4,5-d]pyrimidin-5-yl)pyridin-3-ol] | 998 nM | 8830 nM
11 | Oc1cncc(-c2nc(N3CCOCC3)c3nnn(C4CCN(Cc5ccc(F)cc5)CC4)c3n2)c1 [Example 14, 5-{3-[1-(4-fluorobenzyl)piperidin-4-yl]-7-morpholin-4-yl-3H-[1,2,3]triazolo[4,5-d]pyrimidin-5-yl}pyridin-3-ol] | 60 nM | 94 nM

Continued, values first:

Row | IC50 [1] | IC50 [2] | Compound
12 | 58.5 nM | 186 nM | COC(Cn1nnc2c(N3CCOCC3)nc(-c3ccc(NC(=O)Nc4cccnc4)cc3)nc21)OC [Example 181, 1-{4-[3-(2,2-dimethoxyethyl)-7-morpholin-4-yl-3H-[1,2,3]triazolo[4,5-d]pyrimidin-5-yl]phenyl}-3-pyridin-3-ylurea]
13 | 23.5 nM | 69 nM | CC(C)n1nnc2c(N3CCOCC3)nc(-c3ccc(NC(=O)Nc4ccc(N(C)C)cc4)cc3)nc21 [Example 86, 1-(4-dimethylamino-phenyl)-3-[4-(3-isopropyl-7-morpholin-4-yl-3H-[1,2,3]triazolo[4,5-d]pyrimidin-5-yl)-phenyl]-urea]
14 | 111 nM | 1400 nM | CC(C)(C)OC(=O)N1CCC(n2nnc3c(N4CCOCC4)nc(-c4cnc(N)nc4)nc32)CC1 [Example 148, tert-butyl 4-[5-(2-aminopyrimidin-5-yl)-7-morpholin-4-yl-3H-[1,2,3]triazolo[4,5-d]pyrimidin-3-yl]piperidine-1-carboxylate]
15 | 11.5 nM | 104 nM | CN(C)CCCOc1ccc(CN2CCC(n3nnc4c(N5CCOCC5)nc(-c5ccc(NC(=O)NCCN(C)C)cc5)nc43)CC2)cc1 [Example 162, 1-(2-(dimethylamino)ethyl)-3-(4-(3-(1-(4-(3-(dimethylamino)propoxy)benzyl)piperidin-4-yl)-7-morpholino-3H-[1,2,3]triazolo[4,5-d]pyrimidin-5-yl)phenyl)urea]
16 | 34.5 nM | 132 nM | CC(C)n1nnc2c(N3CCOCC3)nc(-c3ccc(NC(=O)Nc4cnoc4)cc3)nc21 [Example 94, 1-[4-(3-isopropyl-7-morpholin-4-yl-3H-[1,2,3]triazolo[4,5-d]pyrimidin-5-yl)-phenyl]-3-isoxazol-4-yl-urea]
17 | 13 nM | 30.5 nM | CN(C)c1ccc(NC(=O)Nc2ccc(-c3nc(N4CCOCC4)c4nnn(CC(F)(F)F)c4n3)cc2)cc1 [Example 137, 1-[4-(dimethylamino)phenyl]-3-{4-[7-morpholin-4-yl-3-(2,2,2-trifluoroethyl)-3H-[1,2,3]triazolo[4,5-d]pyrimidin-5-yl]phenyl}urea]
18 | 48 nM | 176 nM | CN(C)CCNC(=O)Nc1ccc(-c2nc(N3CCOCC3)c3nnn(C4CCN(Cc5ccc(Br)nc5)CC4)c3n2)cc1 [Example 155, 1-(4-(3-(1-((6-bromopyridin-3-yl)methyl)piperidin-4-yl)-7-morpholino-3H-[1,2,3]triazolo[4,5-d]pyrimidin-5-yl)phenyl)-3-(2-(dimethylamino)ethyl)urea]
19 | 460 nM | 2590 nM | NC(=O)Cn1nnc2c(N3CCOCC3)nc(-c3cccc(CO)c3)nc21 [Example 237, 2-{5-[3-(hydroxymethyl)phenyl]-7-morpholin-4-yl-3H-[1,2,3]triazolo[4,5-d]pyrimidin-3-yl}acetamide]
20 | 386 nM | 1540 nM | CN(C)CCNC(=O)c1ccc(Cn2nnc3c(N4CCOCC4)nc(-c4cccc(O)c4)nc32)cc1 [Example 214, N-[2-(dimethylamino)ethyl]-4-{[5-(3-hydroxyphenyl)-7-morpholin-4-yl-3H-[1,2,3]triazolo[4,5-d]pyrimidin-3-yl]methyl}benzamide]
21 | 74.5 nM | 342 nM | Cc1ccc(CN2CCC(n3nnc4c(N5CCOCC5)nc(-c5ccc(NC(=O)NCCN(C)C)cc5)nc43)CC2)s1 [Example 158, 1-(2-(dimethylamino)ethyl)-3-(4-(3-(1-((5-methylthiophen-2-yl)methyl)piperidin-4-yl)-7-morpholino-3H-[1,2,3]triazolo[4,5-d]pyrimidin-5-yl)phenyl)urea]
